Reference: the supplement of paper PMC8617591

Tests used:
[1] = tested on: Mycobacterium tuberculosis Erdman (autoluminescent); assay: FIC90 (Loewe) at 90% inhibition (log2); higher = more antagonistic
Procedure: (§1)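 DiaMOND equipotent two-drug combination dose responses against autoluminescent M. tuberculosis Erdman in 8 in vitro models. Read-out is OD600, or luminescence for the intracellular and dormancy models, normalised to untreated wells. Hill-fit Einf, AUC25 and GRinf are potency metrics; FIC50 and FIC90 are Loewe-additivity fractional inhibitory concentrations, given as log2 (negative = synergy). Replicates are averaged.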

[2] = tested on: Mycobacterium tuberculosis Erdman (autoluminescent); assay: FIC50 (Loewe) at 50% inhibition (log2); higher = more antagonistic
Procedure: as §1

[3] = tested on: Mycobacterium tuberculosis Erdman (autoluminescent); assay: Einf, fitted maximum growth inhibition of combination (fraction); higher = stronger maximal inhibition
Procedure: as §1

[4] = tested on: Mycobacterium tuberculosis Erdman (autoluminescent); assay: AUC25, normalised area under dose response up to IC25 (fraction (0-1)); higher = more potent at low dose
Procedure: as §1

[5] = tested on: Mycobacterium tuberculosis Erdman (autoluminescent); assay: GRinf, maximum normalised growth rate inhibition (unitless (-1 to 1)); higher = less effect (negative = killing)
Procedure: as §1

CC(C)/N=c1\cc2n(-c3ccc(Cl)cc3)c3ccccc3nc-2cc1Nc1ccc(Cl)cc1 [clofazimine] + CO[C@H]1/C=C/O[C@@]2(C)Oc3c(C)c(O)c4c(O)c(c(/C=N/N5CCN(C)CC5)c(O)c4c3C2=O)NC(=O)/C(C)=C\C=C\[C@H](C)[C@H](O)[C@@H](C)[C@@H](O)[C@@H](C)[C@H](OC(C)=O)[C@@H]1C [rifampicin]
Settings | AUC25, [4] | Einf, [3] | FIC50, [2] | FIC90, [1] | GRinf, [5]
in vitro model: acidic pH 5.7, time point: constant (~7 days, model-specific) | 0.0889 | 0.874 | -0.0436 | -1.95 | -0.208
in vitro model: acidic pH 5.7, time point: terminal (~4-5 doublings, model-specific) | 0.0797 | 0.986 | 0.0811 | -0.172 | -0.273
in vitro model: intracellular J774, time point: constant = terminal | – | 0.967 | – | 0.0974 | -0.265

Settings | AUC25, [4] | Einf, [3] | FIC50, [2] | FIC90, [1] | GRinf, [5]
in vitro model: butyrate, time point: constant (~7 days, model-specific) | 0.117 | 0.936 | 0.216 | 0.25 | -0.0602
in vitro model: butyrate, time point: terminal (~4-5 doublings, model-specific) | 0.104 | 0.979 | 0.0822 | 0.348 | -0.0537
in vitro model: cholesterol 0.05 mM, time point: constant (~7 days, model-specific) | 0.113 | 0.573 | 0.4 | – | 0.303
in vitro model: cholesterol 0.05 mM, time point: terminal (~4-5 doublings, model-specific) | 0.0926 | 0.867 | 1.24 | 2.57 | 0.0118
in vitro model: cholesterol-high 0.2 mM, time point: constant (~7 days, model-specific) | 0.0989 | 0.907 | 0.773 | 2.49 | -0.497
in vitro model: cholesterol-high 0.2 mM, time point: terminal (~4-5 doublings, model-specific) | 0.0908 | 1 | 1.01 | 0.724 | -0.955
in vitro model: dormancy (butyrate + nitrate, low O2), time point: constant (~7 days, model-specific) | 0.0883 | 0.893 | 0.2 | -0.494 | 0.194
in vitro model: dormancy (butyrate + nitrate, low O2), time point: terminal (~4-5 doublings, model-specific) | 0.062 | 0.97 | 0.0425 | 0.45 | -0.059
in vitro model: standard 7H9 glycerol, time point: constant = terminal | 0.103 | 0.935 | -0.376 | -0.394 | 0.00747
in vitro model: valerate, time point: constant (~7 days, model-specific) | 0.119 | 0.907 | 0.421 | – | -0.0677
in vitro model: valerate, time point: terminal (~4-5 doublings, model-specific) | 0.0808 | 0.955 | 0.569 | 1.43 | 0.00769

CC(C)/N=c1\cc2n(-c3ccc(Cl)cc3)c3ccccc3nc-2cc1Nc1ccc(Cl)cc1 [clofazimine] + COc1c(N2C[C@@H]3CCCN[C@@H]3C2)c(F)cc2c(=O)c(C(=O)O)cn(C3CC3)c12 [moxifloxacin]
Settings | AUC25, [4] | Einf, [3] | FIC50, [2] | FIC90, [1] | GRinf, [5]
in vitro model: acidic pH 5.7, time point: constant (~7 days, model-specific) | 0.151 | 0.605 | 0.466 | – | -0.0307
in vitro model: acidic pH 5.7, time point: terminal (~4-5 doublings, model-specific) | 0.0976 | 0.937 | 0.107 | 0.181 | -0.212
in vitro model: intracellular J774, time point: constant = terminal | – | 0.953 | – | 0.341 | -0.283

Settings | AUC25, [4] | Einf, [3] | FIC50, [2] | FIC90, [1] | GRinf, [5]
in vitro model: butyrate, time point: constant (~7 days, model-specific) | 0.109 | 0.955 | 0.486 | 1 | -0.131
in vitro model: butyrate, time point: terminal (~4-5 doublings, model-specific) | 0.0987 | 0.991 | 0.404 | 0.955 | -0.125
in vitro model: cholesterol 0.05 mM, time point: constant (~7 days, model-specific) | 0.153 | 0.711 | 0.262 | – | -0.0492
in vitro model: cholesterol 0.05 mM, time point: terminal (~4-5 doublings, model-specific) | 0.119 | 0.905 | 0.647 | -0.276 | -0.105
in vitro model: cholesterol-high 0.2 mM, time point: constant (~7 days, model-specific) | 0.131 | 0.944 | 0.132 | 1.06 | -0.922
in vitro model: cholesterol-high 0.2 mM, time point: terminal (~4-5 doublings, model-specific) | 0.113 | 1 | 0.0758 | 0.41 | -0.95
in vitro model: dormancy (butyrate + nitrate, low O2), time point: constant (~7 days, model-specific) | 0.109 | 0.931 | 0.299 | 0.00346 | -0.049
in vitro model: dormancy (butyrate + nitrate, low O2), time point: terminal (~4-5 doublings, model-specific) | 0.0647 | 0.98 | 0.666 | 0.72 | -0.241
in vitro model: standard 7H9 glycerol, time point: constant = terminal | 0.109 | 0.971 | 0.11 | 0.558 | -0.193
in vitro model: valerate, time point: constant (~7 days, model-specific) | 0.139 | 0.895 | -0.0703 | – | -0.179
in vitro model: valerate, time point: terminal (~4-5 doublings, model-specific) | 0.0871 | 0.941 | 0.137 | 0.7 | -0.0272

CC(C)/N=c1\cc2n(-c3ccc(Cl)cc3)c3ccccc3nc-2cc1Nc1ccc(Cl)cc1 [clofazimine] + NC(=O)c1cnccn1 [pyrazinamide]
Settings | AUC25, [4] | Einf, [3] | FIC50, [2] | FIC90, [1] | GRinf, [5]
in vitro model: acidic pH 5.7, time point: constant (~7 days, model-specific) | 0.0987 | 0.807 | -0.0856 | – | -0.109
in vitro model: acidic pH 5.7, time point: terminal (~4-5 doublings, model-specific) | 0.106 | 0.98 | -0.519 | -0.794 | -0.397
in vitro model: intracellular J774, time point: constant = terminal | – | 0.996 | – | 0.158 | -0.38

Settings | AUC25, [4] | Einf, [3] | FIC50, [2] | FIC90, [1] | GRinf, [5]
in vitro model: butyrate, time point: constant (~7 days, model-specific) | 0.116 | 0.922 | -0.639 | 0.884 | -0.0318
in vitro model: butyrate, time point: terminal (~4-5 doublings, model-specific) | 0.0881 | 0.958 | -0.58 | -0.361 | -0.00889
in vitro model: cholesterol 0.05 mM, time point: constant (~7 days, model-specific) | 0.146 | 0.653 | – | – | -0.153
in vitro model: cholesterol 0.05 mM, time point: terminal (~4-5 doublings, model-specific) | 0.143 | 0.923 | 0.474 | – | -0.338
in vitro model: cholesterol-high 0.2 mM, time point: constant (~7 days, model-specific) | 0.116 | 0.896 | 0.166 | – | -0.475
in vitro model: cholesterol-high 0.2 mM, time point: terminal (~4-5 doublings, model-specific) | 0.0971 | 1 | 0.233 | 0.114 | -0.881
in vitro model: dormancy (butyrate + nitrate, low O2), time point: constant (~7 days, model-specific) | 0.12 | 0.935 | -0.722 | -0.326 | -0.0386
in vitro model: dormancy (butyrate + nitrate, low O2), time point: terminal (~4-5 doublings, model-specific) | 0.0754 | 0.989 | -0.936 | -0.669 | -0.387
in vitro model: standard 7H9 glycerol, time point: constant = terminal | 0.11 | 0.96 | -0.68 | – | -0.102
in vitro model: valerate, time point: constant (~7 days, model-specific) | 0.143 | 0.885 | -0.679 | – | -0.366
in vitro model: valerate, time point: terminal (~4-5 doublings, model-specific) | 0.0829 | 0.938 | 0.0438 | 0.152 | 0.0893

CC(C)/N=c1\cc2n(-c3ccc(Cl)cc3)c3ccccc3nc-2cc1Nc1ccc(Cl)cc1 [clofazimine] + NNC(=O)c1ccncc1 [isoniazid]
Settings | AUC25, [4] | Einf, [3] | FIC50, [2] | FIC90, [1] | GRinf, [5]
in vitro model: acidic pH 5.7, time point: constant (~7 days, model-specific) | 0.1 | 0.747 | 0.122 | – | 0.074
in vitro model: acidic pH 5.7, time point: terminal (~4-5 doublings, model-specific) | 0.0893 | 0.942 | 0.116 | 0.154 | -0.114
in vitro model: intracellular J774, time point: constant = terminal | – | 0.951 | – | 0.406 | -0.209

Settings | AUC25, [4] | Einf, [3] | FIC50, [2] | FIC90, [1] | GRinf, [5]
in vitro model: butyrate, time point: constant (~7 days, model-specific) | 0.0814 | 0.947 | 0.425 | 0.813 | -0.079
in vitro model: butyrate, time point: terminal (~4-5 doublings, model-specific) | 0.0801 | 0.988 | 0.35 | 0.54 | -0.117
in vitro model: cholesterol 0.05 mM, time point: constant (~7 days, model-specific) | 0.114 | 0.719 | 0.223 | – | -0.06
in vitro model: cholesterol 0.05 mM, time point: terminal (~4-5 doublings, model-specific) | 0.126 | 0.928 | 0.688 | 0.0937 | -0.181
in vitro model: cholesterol-high 0.2 mM, time point: constant (~7 days, model-specific) | 0.118 | 0.93 | 0.123 | -0.0588 | -0.856
in vitro model: cholesterol-high 0.2 mM, time point: terminal (~4-5 doublings, model-specific) | 0.106 | 0.999 | 0.197 | 0.419 | -0.882
in vitro model: dormancy (butyrate + nitrate, low O2), time point: constant (~7 days, model-specific) | 0.0958 | 0.92 | -0.176 | -0.0674 | 0.255
in vitro model: dormancy (butyrate + nitrate, low O2), time point: terminal (~4-5 doublings, model-specific) | 0.058 | 0.981 | -0.116 | -0.0457 | -0.0683
in vitro model: standard 7H9 glycerol, time point: constant = terminal | 0.105 | 0.964 | -0.0807 | 0.0617 | -0.146
in vitro model: valerate, time point: constant (~7 days, model-specific) | 0.144 | 0.925 | 0.0757 | 1.95 | -0.0991
in vitro model: valerate, time point: terminal (~4-5 doublings, model-specific) | 0.0841 | 0.937 | -0.0577 | 0.814 | 0.0302
